Measured values taken from PMC12649225, “Machine Learning-Identified Potent Antimicrobial Peptides Against Multidrug-Resistant Bacteria and Skin Infections” (Antibiotics, 2025).

What was measured:
[1] = test system: A. baumannii RUH875; format: cell-based
Method: (§1) The bacterial strains used in this study included S. aureus JAR060131 [54] and the MDR ESKAPE pathogens Enterococcus faecium LUH15122, S. aureus LUH14616, Klebsiella pneumoniae LUH15104, A. baumannii RUH875 [55], Pseudomonas aeruginosa LUH15103, Enterobacter cloacae LUH15114, and the colistin-resistant Escherichia coli LUH15117. Before each experiment, bacteria from frozen stocks were cultured at 37 °C for 18–24 h on sheep blood agar plates (BioMérieux, Marcy-l’Étoile, France). All strains were then cultured from colonies either in tryptic soy broth (TSB; Oxoid, Basingstoke, UK) for A. baumannii, S. aureus, and E. faecium, or in brain heart infusion broth (BHI; Oxoid) for K. pneumoniae, P. aeruginosa, E. cloacae, and E. coli at 37 °C with shaking at 120 rpm for 18–24 h. Subsequently, bacteria were cultured to mid-logarithmic phase in the media described above at 37 °C with shaking at 120 rpm for 3 h. Bacteria were then washed twice with PBS and diluted to the required inoculum suspension concentration in Roswell Park Memorial Institute (RPMI)-1640 medium containing 20 mM HEPES and L-glutamine but without sodium bicarbonate (Sigma-Aldrich; hereafter referred to as RPMI), based on optical density at 620 nm. RPMI was selected because it supports bacterial growth without impairing AMP activity.
(§2) Bactericidal activity was assessed as described by de Breij et al.. Briefly, mid-logarithmic phase bacterial cultures were diluted to a final concentration of 1 × 10^7 colony-forming units (CFU)/mL in RPMI. Then, 10 µL was added to a final volume of 100 µL in RPMI (final concentration: 1 × 10^6 CFU/mL). Cultures were exposed to peptides either in RPMI or RPMI supplemented with 50% (v/v) human plasma (hereafter referred to as 50% plasma), obtained from four healthy volunteers after informed consent, frozen after collection, and pooled (Sanquin, Amsterdam, The Netherlands). Assays were performed in duplicate using round-bottom polypropylene microtiter plates (Costar, Arlington, VA, USA) and repeated three times. In the initial screening phase (Table 1, Table 2 and Table S1), peptide solutions of 1, 10, and 100 μM (final concentration) were tested against A. baumannii RUH875 and S. aureus JAR060131 in RPMI and in 50% plasma. After this selection process, two lead candidates, their RI variants, and reference peptides were tested with a final concentration range of 0.12 to 120 µM (two-fold dilutions) in RPMI and in 50% plasma (Table 3). The peptides were also tested against ESKAPE pathogens, with Synthetic Antimicrobial and Antibiofilm Peptide (SAAP)-148 as a reference peptide (Table 4).RPMI or 50% plasma served as no-treatment controls. After 2 and 18 h of incubation at 37 °C with shaking at 120 rpm in a humidified environment, the numbers of viable bacteria were quantified. Bactericidal activity was expressed as the lethal concentration 99.9% (LC99.9), defined as the lowest peptide concentration that killed ≥99.9% of bacteria within 2 h (LC99.9_2h) or 18 h (LC99.9_18h) compared to the initial inoculum.

[2] = test system: E. cloacae LUH15114; format: cell-based
Method: as §1, §2

[3] = test system: E. coli LUH15117; format: cell-based
Method: as §1, §2

[4] = test system: E. faecium LUH15122; format: cell-based
Method: as §1, §2

[5] = test system: K. pneumoniae LUH15104; format: cell-based
Method: as §1, §2

[6] = test system: P. aeruginosa LUH15103; format: cell-based
Method: as §1, §2

[7] = test system: S. aureus JAR060131; format: cell-based
Method: as §1, §2

[8] = test system: S. aureus LUH14616; format: cell-based
Method: as §1, §2

[9] = test system: MDR ESKAPE pathogens; experiment: Bactericidal activity (LC99.9), statements for the whole panel; format: cell-based; conditions: range over species
Method: as §1, §2

[10] = test system: A. baumannii RUH875; experiment: SYTOX Green membrane permeabilization assay; format: cell-based, Acinetobacter baumannii; conditions: 1- and 2-fold the LC99.9_2h concentrations; over 90 min; RPMI, 1 μM SYTOX Green
Method: (§3) Control samples were exposed to RPMI only. As a positive control, heat-killed bacteria were incubated at 95 °C for 10 min to induce maximum membrane permeabilization. Fluorescence (excitation: 485 nm, emission: 520 nm) was monitored every minute for 90 min at 37 °C using a […] plate reader (Ortenberg, Germany), with peptides and positive controls added after the third cycle. Background fluorescence (SYTOX Green alone) was subtracted from all values. All assays were performed in triplicate and repeated twice independently.

[11] = test system: S. aureus JAR060131; experiment: SYTOX Green membrane permeabilization assay; format: cell-based, Staphylococcus aureus; conditions: at both sublethal and lethal concentrations
Method: as §3

Ac-KRWVKILKKVWRFL-NH2 [GDST-045]
LC99.9 A. baumannii RUH875 50% Plasma 2 h ([1]; RUH875, 2 h): 1.88 µM | LC99.9 A. baumannii RUH875 50% Plasma 18 h ([1]; RUH875, 18 h): 0.94 µM | LC99.9 E. cloacae LUH15114 50% Plasma 2 h ([2]; LUH15114, 2 h): 60 µM | LC99.9 E. cloacae LUH15114 RPMI 2 h ([2]; LUH15114, 2 h): 1.88 µM | LC99.9 E. cloacae LUH15114 50% Plasma 18 h ([2]; LUH15114, 18 h): 30 µM | LC99.9 E. cloacae LUH15114 RPMI 18 h ([2]; LUH15114, 18 h): 1.88 µM | LC99.9 E. coli LUH15117 RPMI 2 h ([3]; LUH15117, 2 h): 0.94 µM | LC99.9 E. coli LUH15117 RPMI 18 h ([3]; LUH15117, 18 h): 0.94 µM | LC99.9 E. faecium LUH15122 50% Plasma 2 h ([4]; LUH15122, 2 h): 0.94 µM | LC99.9 E. faecium LUH15122 RPMI 2 h ([4]; LUH15122, 2 h): 0.94 µM | LC99.9 E. faecium LUH15122 50% Plasma 18 h ([4]; LUH15122, 18 h): 3.75 µM | LC99.9 E. faecium LUH15122 RPMI 18 h ([4]; LUH15122, 18 h): 0.94 µM | LC99.9 K. pneumoniae LUH15104 50% Plasma 2 h ([5]; LUH15104, 2 h): 15 µM | LC99.9 K. pneumoniae LUH15104 RPMI 2 h ([5]; LUH15104, 2 h): 0.94 µM | LC99.9 K. pneumoniae LUH15104 50% Plasma 18 h ([5]; LUH15104, 18 h): 7.5 µM | LC99.9 K. pneumoniae LUH15104 RPMI 18 h ([5]; LUH15104, 18 h): 1.88 µM | LC99.9 P. aeruginosa LUH15103 50% Plasma 2 h ([6]; LUH15103, 2 h): 60 µM | LC99.9 P. aeruginosa LUH15103 RPMI 2 h ([6]; LUH15103, 2 h): 1.88 µM | LC99.9 P. aeruginosa LUH15103 50% Plasma 18 h ([6]; LUH15103, 18 h): 30 µM | LC99.9 P. aeruginosa LUH15103 RPMI 18 h ([6]; LUH15103, 18 h): 3.75 µM | LC99.9 S. aureus JAR060131 50% Plasma 2 h ([7]; JAR060131, 2 h): 3.75 µM | LC99.9 S. aureus JAR060131 RPMI 2 h ([7]; JAR060131, 2 h): 0.94 µM | LC99.9 S. aureus JAR060131 50% Plasma 18 h ([7]; JAR060131, 18 h): 1.88 µM | LC99.9 S. aureus LUH14616 50% Plasma 2 h ([8]; LUH14616, 2 h): 15 µM | LC99.9 S. aureus LUH14616 RPMI 2 h ([8]; LUH14616, 2 h): 0.94 µM | LC99.9 S. aureus LUH14616 50% Plasma 18 h ([8]; LUH14616, 18 h): 1.88 µM | LC99.9 S. aureus LUH14616 RPMI 18 h ([8]; LUH14616, 18 h): 0.94 µM | Concentrations killing ESKAPE pathogens in 50% plasma within 2 h ([9]; 50% plasma, 2 h): 0.94 to 120 µM | Concentrations killing ESKAPE pathogens in 50% plasma after 18 h ([9]; 50% plasma, 18 h): 0.94 to 30 µM | Concentrations killing ESKAPE pathogens in RPMI within 2 h ([9]; RPMI, 2 h): 0.94 to 15 µM | SYTOX fluorescence intensity, A. baumannii [10]: fluorescence levels similar to heat-killed controls | Time to rise in SYTOX fluorescence intensity after peptide addition, S. aureus [11]: ≤ 1 min
